Measurements taken from patent US20050070462A1, “Method for stabilising of nucleic acids” (Intercell AG, priority 2001, published 2005).
Ends that are not written are not given here.

Experiments:
[1] = tested on: peptide-specific IFN-γ-producing T cells (TRP-2181-188); test: IFN-γ ELISPOT of PBMCs at day 7 after injection with TRP-2181-188 and KLK (Example 7); assay type: in vivo, Mice C57Bl/6; settings: TRP-2181-188 alone or with a single adjuvant
[2] = tested on: TRP-2181-188-specific immune responses; test: IFN-γ ELISPOT of lymph node cells after footpad injection with TRP-2181-188 (Examples 2 and 3); assay type: in vivo, Mice C57Bl/6; settings: injected with TRP-2181-188 and co-injection of poly-L-arginine 100 μg/mouse; ODN 5 nmol/mouse
[3] = tested on: OVA257-264-specific IFN-γ producing T cells; test: IFN-γ ELISPOT of PBMCs at day 7 after injection with OVA257-264 and KLK (Example 6); assay type: in vivo, Mice C57Bl/6; settings: injected with OVA257-264, single adjuvant
[4] = tested on: TRP-2181-188-specific immune responses; test: IFN-γ ELISPOT of spleen cells at day 40 after injection with TRP-2181-188 (Example 4); assay type: in vivo, Mice C57Bl/6; settings: injected with TRP-2181-188, single adjuvant, compared to TRP-2181-188 alone
serum DNAses = test: Degradation of DNA-plasmid pSP65 by serum DNAses, agarose gel (Example 8); assay type: in vitro ADME; settings: incubated with serum from naïve mice, 1 h at 37° C., presence of poly-L-arginine 2.4 μg
Procedure: To investigate the protective effect of pR in preventing the degradation of DNA by DNAses the following in vitro experiment was performed. To show a possible in vivo relevance serum was used as source of DNases.
The DNA-plasmid pSP65 (1.58 μg/2 μl) was incubated with serum (8 μl) from naïve mice in the presence or absence of poly-L-arginine (2.4 μg/2.4 μl) for 1 h at 37° C. Addition of heparin (1.6 U/1.6 μl) for 20 min at RT was used for the dissociation of DNA/pR-complexes allowing DNA to migrate into the gel. […] As control a 100 bp DNA marker (GIBCO BRL) was used.

[5] = tested on: OVA257-264-specific immune responses; test: IFN-γ ELISPOT of popliteal lymph node cells 4 days after footpad injection with OVA257-264 (Example 1); assay type: in vivo, Mice C57Bl/6; settings: injected with OVA257-264 and co-injection of poly-L-arginine 100 μg/mouse; ODN 5 nmol/mouse; day 4
Procedure: • Mice C57Bl/6 (Harlan/Olac) • Peptide OVA257-264-Peptide (SIINFEKL), a MHC class I (H-2 Kb)-restricted epitope of chicken ovalbumin (Rotzschke et al., 1991), synthesized by standard solid phase F-moc synthesis, HPLC purified and analysed by mass spectroscopy for purity • Dose: 300 μg/mouse • Poly-L-arginine (pR) Poly-L-arginine with an average degree of polymerization of 43 arginine residues; SIGMA chemicals • Dose: 100 μg/mouse • CpG-ODN 1668 thiophosphate substituted ODNs containing CpG-motif: tcc atg acg ttc ctg atg ct, were synthesized by Purimex GmbH, Göttingen. • Dose: 5 nmol/mouse • CpG-ODN 1668 b ODNs containing CpG-motif (not substituted with thiophospate): tcc atg acg ttc ctg atg ct, were synthesized by Purimex GmbH, Göttingen. • Dose: 5 nmol/mouse. Experimental Groups (4 Mice Per Group) • 1. OVA257-264+pR • 2. OVA257-264+CpG-ODN 1668 • 3. OVA257-264+CpG-ODN 1668 b • 4. OVA257-264+CPG-ODN 1668+pR • 5. OVA257-264+CPG-ODN 1668 b+pR. […] This method is a widely used procedure allowing the quantification of antigen-specific T cells. […] Spots representing single IFN-γ producing T cells were counted and the number of background spots was substracted from all samples. The high number of spots detected after the stimulation with Con A (data not shown) indicates a good condition of the used lymphocytes. […]

[6] = tested on: TRP-2181-188-specific immune responses; test: IFN-γ ELISPOT of spleen cells at day 6, 49 and 98 after injection with TRP-2181-188 (Example 5); assay type: in vivo, Mice C57Bl/6; settings: co-injection of TRP-2181-188, pR and ODN, day 6, day 49, day 98 after single injection, compared to TRP-2181-188 with pR or CpG 1668b

In the case of “TRP-2181-188: VYDFFVWL, a MHC class I (H-2 Kb)-restricted epitope of mouse tyrosinase related protein-2 [reference compound]”, the “peptide-specific IFN-γ-production (PBMCs)” value [1] is reported as “no peptide-specific IFN-γ-production”.

For “U-ODN 13b: ODNs containing deoxy-Uridine monophosphate (not substituted with thiophospate): tcc atg acu ttc ctg atg ct (DNA TCCATGACUTTCCTGATGCT; DNA, all phosphodiester, T or U not given here; further chemistry not fully specified)”, the “TRP-2181-188-specific immune response (IFN-γ-producing lymph node cells)” value [2] was “only upon co-injection of poly-L-arginine a strong immune response was induced”.

In the case of “KLKLLLLLKLK—COOH (KLKLLLLLKLK-OH) [synthetic peptide containing KLK-motifs separated by a linker of hydrophobic amino acids]”, the “peptide-specific IFN-γ-production (PBMCs)” value [3] is reported as “no peptide-specific IFN-γ-production” and the “peptide-specific IFN-γ-production (PBMCs)” value [1] is reported as “no peptide-specific IFN-γ-production”.

Poly-L-arginine [pR] was tested, and the “TRP-2181-188-specific immune response (IFN-γ-producing spleen cells)” value [4] was “enhances TRP-2181-188-specific immune responses” and the “degradation of pSP65 DNA by serum DNases (agarose gel band pattern)” value (serum DNAses) was “prevented”.

“CpG-ODN 1668 b: ODNs containing CpG-motif (not substituted with thiophospate): tcc atg acg ttc ctg atg ct (DNA TCCATGACGTTCCTGATGCT; unmodified DNA)” was tested, and the “OVA257-264-specific immune response (IFN-γ-producing cells/1×10^6 lymph node cells)” value [5] was “only upon co-injection of poly-L-arginine a high immune response was induced”, the “peptide-specific IFN-g producing cells (spleen)” value ([6]; listed as CpG 1668 b) was “potent and long lasting immune stimulatory effect” and the “peptide-specific IFN-g producing cells (spleen)” value ([6]; listed as CpG 1668b) was “significantly higher numbers of peptide-specific IFN-g producing cells”.
